Key:
[1] = tested on: MIAPACA2 cells; assay: CellTiter-Glo cell viability, PRMT5 inhibitor + sotorasib, 6 days; type: cell-based; settings: Compound B + sotorasib
Experimental: Cell viability was measured by the CellTiter-Glo Luminescence assay after 6 days. […] To assess cell growth after combination treatment, nuclear counts were performed on the IncuCyte live cell imager over 8 days.

[2] = tested on: A549 cells; assay: CellTiter-Glo viability and CalcuSyn synergy, PRMT5 inhibitor + KRAS G12X inhibitor, 6 days; settings: for Combination Fa: 8640 min
[3] = tested on: MIAPACA2T2 cells; assay: CellTiter-Glo viability and CalcuSyn synergy, PRMT5 inhibitor + trametinib, 6 days; settings: for Combination Fa: 8640 min
[4] = tested on: LU5268 NSCLC xenografts; assay: Tumor growth inhibition, LU5268 NSCLC xenografts (Example 13); type: in vivo, Female NOD/SCID mice; settings: Compound B 100 mg/kg orally once daily + sotorasib 100 mg/kg; versus either single agent alone
Excerpt: 10 Female NOD/SCID mice were implanted with LU5268 NSCLC tumor xenografts. Mean tumor volumes for each grouping were between 100-200 mm^3. […] Plotted data represents the TGI (tumor growth inhibition), n=10 for each group.

[5] = tested on: MIAPACA2 cells; assay: CellTiter-Glo viability and CalcuSyn synergy, PRMT5 inhibitor + sotorasib, 6 days (Example 15); type: cell-based; set-up: key: CI<1 synergy, CI=1 additivity, CI>1 antagonism
Experimental: (§1) Raw luminescent values were converted to fraction affected (Fa) with the following equation: […]
Synergy analysis was performed using the CalcuSyn software to determine CI scores based on the drug concentrations used and corresponding Fa values. Results are shown in Table 24 below. *CI Values (Calcusyn): CI<1 indicates synergy. C=1 indicates additivity. C>1 indicates antagonism.

[6] = tested on: UM-UC-3 cells; assay: CellTiter-Glo viability and CalcuSyn synergy, PRMT5 inhibitor + sotorasib, 6 days; type: cell-based; settings: for Combination Fa: 8640 min
Experimental: as §1
Synergy analysis was performed using the CalcuSyn software to determine CI scores based on the drug concentrations used and corresponding Fa values. Results are shown in Table 6 below. *CI Values (Calcusyn): Strong Synergism: 0.1-0.3; Synergism: 0.3-0.7; Moderate Synergism: 0.7-0.85; Slight Synergism: 0.85-0.9; Nearly Additive: 0.9-1.1.

[7] = tested on: LU99 cells; assay: as above; settings: for Combination Fa: 8640 min
[8] = Compound B 0.0808 μM + KRAS G12X inhibitor 0.010628 μM
[9] = Compound B 0.0808 μM + KRAS G12X inhibitor 0.020193 μM
[10] = Compound B 0.0808 μM + KRAS G12X inhibitor 0.038367 μM
[11] = Compound B 0.0808 μM + KRAS G12X inhibitor 0.072897 μM
[12] = Compound B 0.0808 μM + KRAS G12X inhibitor 0.138504 μM
[13] = Compound B 0.0808 μM + KRAS G12X inhibitor 0.263158 μM
[14] = Compound B 0.0808 μM + KRAS G12X inhibitor 0.5 μM
[15] = Compound B 0.437381 μM + trametinib 0.00101 μM
[16] = Compound B 0.437381 μM + trametinib 0.001918 μM
[17] = Compound B 0.437381 μM + trametinib 0.003645 μM
[18] = Compound B 0.437381 μM + trametinib 0.00531 μM
[19] = Compound B 0.437381 μM + trametinib 0.006925 μM
[20] = Compound B 0.437381 μM + trametinib 0.013158 μM
[21] = Compound B 0.437381 μM + trametinib 0.025 μM
[22] = Compound B 0.2916 μM + sotorasib 0.00298 μM
[23] = Compound B 0.2916 μM + sotorasib 0.004768 μM
[24] = Compound B 0.2916 μM + sotorasib 0.007629 μM
[25] = Compound B 0.2916 μM + sotorasib 0.012207 μM
[26] = Compound B 0.2916 μM + sotorasib 0.019531 μM
[27] = Compound B 0.2916 μM + sotorasib 0.03125 μM
[28] = Compound B 0.0384 μM + sotorasib 0.15625 μM
[29] = Compound B 0.0384 μM + sotorasib 0.3125 μM
[30] = Compound B 0.0384 μM + sotorasib 0.625 μM
[31] = Compound B 0.0384 μM + sotorasib 1.25 μM
[32] = Compound B 0.0384 μM + sotorasib 2.5 μM
[33] = Compound B 0.0384 μM + sotorasib 5 μM
[34] = Compound B 0.0384 μM + sotorasib 10 μM

Cc1cc2cc(C(=O)N(Cc3ccc(C(F)(F)F)cn3)[C@@H](C)c3ncccn3)ccc2nc1N [Compound B]
cell viability [1]: reduced MIAPACA2 cell viability | Computed CI value [2, 8]: 0.38 | Combination Fa [2, 8]: 0.5945 | Computed CI value [2, 9]: 0.366 | Combination Fa [2, 9]: 0.6255 | Computed CI value [2, 10]: 0.247 | Combination Fa [2, 10]: 0.7012 | Computed CI value [2, 11]: 0.284 | Combination Fa [2, 11]: 0.7187 | Computed CI value [2, 12]: 0.27 | Combination Fa [2, 12]: 0.7582 | Computed CI value [2, 13]: 0.409 | Combination Fa [2, 13]: 0.7615 | Computed CI value [2, 14]: 0.503 | Combination Fa [2, 14]: 0.7849 | Computed CI value [3, 15]: 0.675 | Combination Fa [3, 15]: 0.6193 | Computed CI value [3, 16]: 0.555 | Combination Fa [3, 16]: 0.6852 | Computed CI value [3, 17]: 0.674 | Combination Fa [3, 17]: 0.7091 | Computed CI value [3, 18]: 0.775 | Combination Fa [3, 18]: 0.5757 | Computed CI value [3, 19]: 0.557 | Combination Fa [3, 19]: 0.797 | Computed CI value [3, 20]: 0.651 | Combination Fa [3, 20]: 0.8405 | Computed CI value [3, 21]: 1.099 | Combination Fa [3, 21]: 0.8474 | anti-tumor activity [4]: significant anti-tumor activity versus either single agent alone | CI score ([5]; Compound B 0.018 μM + sotorasib 0.006 μM): 0.68 | CI score ([5]; Compound B 0.018 μM + sotorasib 0.010 μM): 0.73 | CI score ([5]; Compound B 0.018 μM + sotorasib 0.015 μM): 0.64 | CI score ([5]; Compound B 0.018 μM + sotorasib 0.024 μM): 0.80 | CI score ([5]; Compound B 0.018 μM + sotorasib 0.039 μM): 0.77 | CI score ([5]; Compound B 0.018 μM + sotorasib 0.063 μM): 0.93 | CI score ([5]; Compound B 0.018 μM + sotorasib 0.100 μM): 1.25 | CI score ([5]; Compound B 0.034 μM + sotorasib 0.006 μM): 0.55 | CI score ([5]; Compound B 0.034 μM + sotorasib 0.010 μM): 0.59 | CI score ([5]; Compound B 0.034 μM + sotorasib 0.015 μM): 0.56 | CI score ([5]; Compound B 0.034 μM + sotorasib 0.024 μM): 0.76 | CI score ([5]; Compound B 0.034 μM + sotorasib 0.039 μM): 0.79 | CI score ([5]; Compound B 0.034 μM + sotorasib 0.063 μM): 0.83 | CI score ([5]; Compound B 0.034 μM + sotorasib 0.100 μM): 1.43 | CI score ([5]; Compound B 0.064 μM + sotorasib 0.006 μM): 0.52 | CI score ([5]; Compound B 0.064 μM + sotorasib 0.010 μM): 0.65 | CI score ([5]; Compound B 0.064 μM + sotorasib 0.015 μM): 0.68 | CI score ([5]; Compound B 0.064 μM + sotorasib 0.024 μM): 0.53 | CI score ([5]; Compound B 0.064 μM + sotorasib 0.039 μM): 0.72 | CI score ([5]; Compound B 0.064 μM + sotorasib 0.063 μM): 0.75 | CI score ([5]; Compound B 0.064 μM + sotorasib 0.100 μM): 1.24 | CI score ([5]; Compound B 0.121 μM + sotorasib 0.006 μM): 0.63 | CI score ([5]; Compound B 0.121 μM + sotorasib 0.010 μM): 0.71 | CI score ([5]; Compound B 0.121 μM + sotorasib 0.015 μM): 0.53 | CI score ([5]; Compound B 0.121 μM + sotorasib 0.024 μM): 0.64 | CI score ([5]; Compound B 0.121 μM + sotorasib 0.039 μM): 0.67 | CI score ([5]; Compound B 0.121 μM + sotorasib 0.063 μM): 0.96 | CI score ([5]; Compound B 0.121 μM + sotorasib 0.100 μM): 1.02 | CI score ([5]; Compound B 0.230 μM + sotorasib 0.006 μM): 0.65 | CI score ([5]; Compound B 0.230 μM + sotorasib 0.010 μM): 0.63 | CI score ([5]; Compound B 0.230 μM + sotorasib 0.015 μM): 0.55 | CI score ([5]; Compound B 0.230 μM + sotorasib 0.024 μM): 0.51 | CI score ([5]; Compound B 0.230 μM + sotorasib 0.039 μM): 0.71 | CI score ([5]; Compound B 0.230 μM + sotorasib 0.063 μM): 0.72 | CI score ([5]; Compound B 0.230 μM + sotorasib 0.100 μM): 1.00 | CI score ([5]; Compound B 0.437 μM + sotorasib 0.006 μM): 0.55 | CI score ([5]; Compound B 0.437 μM + sotorasib 0.010 μM): 0.70 | CI score ([5]; Compound B 0.437 μM + sotorasib 0.015 μM): 0.52 | CI score ([5]; Compound B 0.437 μM + sotorasib 0.024 μM): 0.61 | CI score ([5]; Compound B 0.437 μM + sotorasib 0.039 μM): 0.65 | CI score ([5]; Compound B 0.437 μM + sotorasib 0.063 μM): 0.67 | CI score ([5]; Compound B 0.437 μM + sotorasib 0.100 μM): 1.06 | CI score ([5]; Compound B 0.831 μM + sotorasib 0.006 μM): 0.83 | CI score ([5]; Compound B 0.831 μM + sotorasib 0.010 μM): 0.85 | CI score ([5]; Compound B 0.831 μM + sotorasib 0.015 μM): 0.68 | CI score ([5]; Compound B 0.831 μM + sotorasib 0.024 μM): 0.65 | CI score ([5]; Compound B 0.831 μM + sotorasib 0.039 μM): 0.75 | CI score ([5]; Compound B 0.831 μM + sotorasib 0.063 μM): 0.89 | CI score ([5]; Compound B 0.831 μM + sotorasib 0.100 μM): 1.15 | CI score ([5]; Compound B 1.579 μM + sotorasib 0.006 μM): 1.30 | CI score ([5]; Compound B 1.579 μM + sotorasib 0.010 μM): 1.37 | CI score ([5]; Compound B 1.579 μM + sotorasib 0.015 μM): 0.95 | CI score ([5]; Compound B 1.579 μM + sotorasib 0.024 μM): 0.91 | CI score ([5]; Compound B 1.579 μM + sotorasib 0.039 μM): 0.95 | CI score ([5]; Compound B 1.579 μM + sotorasib 0.063 μM): 0.98 | CI score ([5]; Compound B 1.579 μM + sotorasib 0.100 μM): 1.25 | Computed CI value [6, 22]: 1.172 | Combination Fa [6, 22]: 0.5393 | Computed CI value [6, 23]: 1.028 | Combination Fa [6, 23]: 0.6004 | Computed CI value [6, 24]: 0.778 | Combination Fa [6, 24]: 0.6836 | Computed CI value [6, 25]: 0.685 | Combination Fa [6, 25]: 0.7355 | Computed CI value [6, 26]: 0.677 | Combination Fa [6, 26]: 0.7685 | Computed CI value [6, 27]: 0.584 | Combination Fa [6, 27]: 0.8141 | Computed CI value [7, 28]: 0.307 | Combination Fa [7, 28]: 0.5467 | Computed CI value [7, 29]: 0.234 | Combination Fa [7, 29]: 0.5942 | Computed CI value [7, 30]: 0.269 | Combination Fa [7, 30]: 0.5919 | Computed CI value [7, 31]: 0.273 | Combination Fa [7, 31]: 0.615 | Computed CI value [7, 32]: 0.32 | Combination Fa [7, 32]: 0.6304 | Computed CI value [7, 33]: 0.321 | Combination Fa [7, 33]: 0.6694 | Computed CI value [7, 34]: 0.669 | Combination Fa [7, 34]: 0.6476

Source: patent US20260373156A1, “CANCER TREATMENTS USING MTA-COOPERATIVE PRMT5 INHIBITORS” (AMGEN INC., priority 2022, published 2026)
